From PubChem BioAssay (NCI)
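Compound exposure: 48 hours, 5 concentrations, 96-well plates. The concentration for 50% growth inhibition is given as GI50. At the TGI there is no net growth.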

Legend:
Assay in all cases: NCI-60 cell line screen, 48 h
786-0 renal = test system: 786-0 renal
SK-OV-3 ovarian = test system: SK-OV-3 ovarian
HOP-92 NSCLC = test system: HOP-92 NSCLC
CCRF-CEM leukemia = test system: CCRF-CEM leukemia
SW-620 colon = test system: SW-620 colon
NCI-H460 lung = test system: NCI-H460 lung
HOP-62 NSCLC = test system: HOP-62 NSCLC
T-47D breast = test system: T-47D breast
MDA-MB-231 breast = test system: MDA-MB-231 breast
A498 renal = test system: A498 renal

SMILES	TGI (786-0 renal) [µM]	TGI (SK-OV-3 ovarian) [µM]	TGI (HOP-92 NSCLC) [µM]	TGI (CCRF-CEM leukemia) [µM]	TGI (SW-620 colon) [µM]	TGI (NCI-H460 lung) [µM]	TGI (HOP-62 NSCLC) [µM]	TGI (T-47D breast) [µM]	TGI (MDA-MB-231 breast) [µM]	TGI (A498 renal) [µM]	GI50 (HOP-62 NSCLC) [µM]	GI50 (786-0 renal) [µM]	GI50 (SK-OV-3 ovarian) [µM]	GI50 (T-47D breast) [µM]	GI50 (MDA-MB-231 breast) [µM]	GI50 (HOP-92 NSCLC) [µM]	GI50 (CCRF-CEM leukemia) [µM]	GI50 (SW-620 colon) [µM]	GI50 (NCI-H460 lung) [µM]	GI50 (A498 renal) [µM]
Clc1cc(Cl)cc(C2SCc3nc4ccccc4n32)c1 (configuration not stated)	32.4	63.8	47.2	70.6	33.6	29.3	–	–	–	–	–	–	–	–	–	–	–	–	–	–
N#Cc1c(N)n(C2OC(CO)C(O)C2O)c2ncnc(N)c12 (configuration not stated)	5.55	–	> 100	1.34	–	–	2.39	0.221	> 8.22	–	–	–	–	–	–	–	–	–	–	–
Clc1cc2nc[nH]c2cc1Cl	> 100	> 100	> 100	> 100	> 100	> 100	> 100	–	–	> 100	–	–	–	–	–	–	–	–	–	–
CCOC(=O)C1Nc2ccc([N+](=O)[O-])cc2[C@H]2OCC[C@@H]12 (some centres not stated)	> 100	> 100	–	> 100	> 100	> 100	> 100	–	–	> 100	–	–	–	–	–	–	–	–	–	–
CCOC(=O)NC(=O)c1cn(CC(=O)NCC(=O)NCC(=O)N2CCN(CCn3c(C)nc(C(N)=O)c3N)CC2)c(=O)[nH]c1=O	> 100	> 100	> 100	> 100	> 100	> 100	> 100	–	–	> 100	–	–	–	–	–	–	–	–	–	–
O=C1C2c3[nH]c4ccccc4c3C3CCC(c4ccccc4)CC3C2C(=O)N1c1ccccc1 (configuration not stated)	> 100	> 100	–	> 100	> 100	> 100	–	–	–	–	–	–	–	–	–	–	–	–	–	–
CC(C)(C)n1nc(C2CC2)cc1NC(=O)Nc1ccc(Cl)cc1	> 100	> 100	> 100	–	> 100	> 100	> 100	> 100	> 100	> 100	–	–	–	–	–	–	–	–	–	–
COc1ccc2c3c(ccc2c1)NC(C(=O)O)CC3 (configuration not stated)	> 100	> 100	> 100	–	> 100	> 100	> 100	79.1	> 100	> 100	–	–	–	–	–	–	–	–	–	–
CN(C)C(=O)C(NCCO)c1ccccc1 (configuration not stated)	> 100	> 100	> 100	–	> 100	> 100	> 100	> 100	> 100	> 100	–	–	–	–	–	–	–	–	–	–
CCCCN1C(=O)C2c3[nH]c4ccccc4c3C3CCCCC3C2C1=O (mixture of isomers)	20.2	47.7	–	37.5	> 100	31.2	19.4	–	–	–	–	–	–	–	–	–	–	–	–	–
CN(C)c1ccc(/C=N/NC(=O)CSc2nc3sc4c(c3c(=O)n2-c2ccccc2)CCCCC4)cc1	39.1	51	29	> 100	> 100	4.86	20.2	> 100	18	–	3.21	8.26	11.3	> 100	2.89	3.55	5.82	3.56	2.21	–
COc1ccc(NC(=O)COc2ccccc2)c(C(N)=O)c1	49.4	> 100	> 78	> 100	> 100	> 56.7	43.4	–	> 63	8.38	1.07	2.18	3.35	–	1.91	2.87	0.961	0.511	0.605	0.757
OCC(O)C(O)C(O)c1nn[nH]n1 (configuration not stated)	> 100	> 100	> 100	> 100	> 100	> 100	> 100	–	–	–	–	–	–	–	–	–	–	–	–	–
C[C@]12CC/C(=N\O)C[C@@H]1CC[C@@H]1[C@@H]2CC[C@]2(C)/C(=N/O)CC[C@@H]12	72.3	> 100	> 100	–	> 100	> 100	–	> 100	73.8	> 100	–	26.7	51.4	> 100	26	> 100	–	57.1	34.2	47.2
C[C@]12CC[C@H](OC(=O)Cc3ccc(N(CCCl)CCCl)cc3)CC1CC[C@@H]1C2CC[C@]2(C)NC(=O)CCC12 (some centres not stated)	29	33.8	35.6	18	24.7	35.1	–	–	–	43.5	–	–	–	–	–	–	–	–	–	–
Cc1ccc2oc(=O)cc(CC(=O)O)c2c1	> 100	> 100	> 100	> 100	> 100	> 100	> 100	–	–	> 100	–	–	–	–	–	–	–	–	–	–
N=C(N)c1ccc(CS(=O)(=O)F)cc1	> 100	> 100	> 100	–	> 100	> 100	> 100	> 100	> 100	–	> 100	> 100	> 100	> 100	> 100	> 100	–	> 100	> 100	–
[O-]c1ccccc1[C-]=Nc1ccccc1O.[O-]c1ccccc1[C-]=Nc1ccccc1O.[O]=[U]=[O]	35.9	71	35.2	44.4	74.5	41.2	57.4	–	–	46.6	19.9	13.1	43	–	–	8.4	2.6	12.2	14.5	22.8
CC(C)(C)c1cc(O)c2c(c1O)C(=O)CCC2	> 100	> 100	21.1	> 100	> 100	> 100	91.9	–	–	> 100	–	–	–	–	–	–	–	–	–	–
CCCCCCN(CCCCCC)C1=CC(=O)C(=O)c2ccccc21	30.3	31.6	28.7	> 100	27.3	33.6	32.8	–	–	41.6	–	–	–	–	–	–	–	–	–	–
CN1CCN2c3ccccc3CC(C#N)(C#N)C2C1 (configuration not stated)	> 100	> 100	> 100	> 100	> 100	> 100	–	–	–	> 100	–	–	–	–	–	–	–	–	–	–
